# Results reported in patent US11427549B2, “Pyrimidinyloxy benzo-fused compounds as herbicides” (FMC Corporation, priority 2017, dated 2022).
# What was measured:
# [1] = tested on: barnyardgrass (Echinochloa crus-galli); test: Test A preemergence, barnyardgrass; assay type: in vivo; settings: Echinochloa crus-galli, pre-emergence, 240 h, 0 to 100 scale (0 no effect, 100 complete control), read-out: Plant response rating, Barnyardgrass; for pest or weed control at 31 g/ha: 31 g ai/ha; for pest or weed control at 125 g/ha: 125 g ai/ha
# Excerpt: (§1) Seeds of plant species selected from barnyardgrass (Echinochloa crus-galli), kochia (Kochia scoparia), ragweed (common ragweed, Ambrosia elatior), ryegrass, Italian (Italian ryegrass, Lolium multiflorum), foxtail, giant (giant foxtail, Setaria faberii), foxtail, green (green foxtail, Setaria viridis) and pigweed (Amaranthus retroflexus) were planted into a blend of loam soil and sand and treated preemergence with a directed soil spray using test chemicals formulated in a non-phytotoxic solvent mixture which included a surfactant.
# (§2) At the same time, plants selected from these weed species and also wheat (Triticum aestivum), corn (Zea mays), blackgrass (Alopecurus myosuroides), and galium (catchweed bedstraw, Galium aparine) were planted in pots containing the same blend of loam soil and sand and treated with postemergence applications of test chemicals formulated in the same manner. Plants ranged in height from 2 to 10 cm and were in the one- to two-leaf stage for the postemergence treatment. Treated plants and untreated controls were maintained in a greenhouse for approximately 10 days, after which time all treated plants were compared to untreated controls and visually evaluated for injury. […] A dash (-) response means no test result.
# [2] = tested on: kochia (Kochia scoparia); test: Test A preemergence, kochia; assay type: in vivo; settings: Bassia scoparia, pre-emergence, 240 h, 0 to 100 scale (0 no effect, 100 complete control), read-out: Plant response rating, Kochia; for pest or weed control at 31 g/ha: 31 g ai/ha; for pest or weed control at 125 g/ha: 125 g ai/ha
# Excerpt: as §1, §2
# [3] = tested on: ragweed (common ragweed, Ambrosia elatior); test: Test A preemergence, ragweed; assay type: in vivo; settings: Ambrosia artemisiifolia, pre-emergence, 240 h, 0 to 100 scale (0 no effect, 100 complete control), read-out: Plant response rating, Ragweed; for pest or weed control at 31 g/ha: 31 g ai/ha; for pest or weed control at 125 g/ha: 125 g ai/ha
# Excerpt: as §1, §2
# [4] = tested on: ryegrass, Italian (Italian ryegrass, Lolium multiflorum); test: Test A preemergence, ryegrass, Italian; assay type: in vivo; settings: Lolium multiflorum, pre-emergence, 240 h, 0 to 100 scale (0 no effect, 100 complete control), read-out: Plant response rating, Ryegrass, Italian; for pest or weed control at 31 g/ha: 31 g ai/ha; for pest or weed control at 125 g/ha: 125 g ai/ha
# Excerpt: as §1, §2
# [5] = tested on: pigweed (Amaranthus retroflexus); test: Test A preemergence, pigweed; assay type: in vivo; settings: Amaranthus retroflexus, pre-emergence, 240 h, 0 to 100 scale (0 no effect, 100 complete control), read-out: Plant response rating, Pigweed; for pest or weed control at 31 g/ha: 31 g ai/ha; for pest or weed control at 125 g/ha: 125 g ai/ha
# Excerpt: as §1, §2
# [6] = tested on: barnyardgrass (Echinochloa crus-galli); test: Test A postemergence, barnyardgrass; assay type: in vivo; settings: Echinochloa crus-galli, post-emergence, 240 h, 0 to 100 scale (0 no effect, 100 complete control), read-out: Plant response rating, Barnyardgrass; for pest or weed control at 31 g/ha: 31 g ai/ha; for pest or weed control at 125 g/ha: 125 g ai/ha
# Excerpt: as §1, §2
# [7] = tested on: kochia (Kochia scoparia); test: Test A postemergence, kochia; assay type: in vivo; settings: Bassia scoparia, post-emergence, 240 h, 0 to 100 scale (0 no effect, 100 complete control), read-out: Plant response rating, Kochia; for pest or weed control at 31 g/ha: 31 g ai/ha; for pest or weed control at 125 g/ha: 125 g ai/ha
# Excerpt: as §1, §2
# [8] = tested on: ragweed (common ragweed, Ambrosia elatior); test: Test A postemergence, ragweed; assay type: in vivo; settings: Ambrosia artemisiifolia, post-emergence, 240 h, 0 to 100 scale (0 no effect, 100 complete control), read-out: Plant response rating, Ragweed; for pest or weed control at 31 g/ha: 31 g ai/ha; for pest or weed control at 125 g/ha: 125 g ai/ha
# Excerpt: as §1, §2
# [9] = tested on: ryegrass, Italian (Italian ryegrass, Lolium multiflorum); test: Test A postemergence, ryegrass, Italian; assay type: in vivo; settings: Lolium multiflorum, post-emergence, 240 h, 0 to 100 scale (0 no effect, 100 complete control), read-out: Plant response rating, Ryegrass, Italian; for pest or weed control at 31 g/ha: 31 g ai/ha; for pest or weed control at 125 g/ha: 125 g ai/ha
# Excerpt: as §1, §2
# [10] = tested on: pigweed (Amaranthus retroflexus); test: Test A postemergence, pigweed; assay type: in vivo; settings: Amaranthus retroflexus, post-emergence, 240 h, 0 to 100 scale (0 no effect, 100 complete control), read-out: Plant response rating, Pigweed; for pest or weed control at 31 g/ha: 31 g ai/ha; for pest or weed control at 125 g/ha: 125 g ai/ha
# Excerpt: as §1, §2
# [11] = tested on: wheat (Triticum aestivum); test: Test A postemergence, wheat; assay type: in vivo; settings: Triticum aestivum, post-emergence, 240 h, 0 to 100 scale (0 no effect, 100 complete control), read-out: Plant response rating, Wheat; for plant injury at 31 g/ha: 31 g ai/ha; for plant injury at 125 g/ha: 125 g ai/ha
# Excerpt: as §1, §2
# [12] = tested on: corn (Zea mays); test: Test A postemergence, corn; assay type: in vivo; settings: Zea mays, post-emergence, 240 h, 0 to 100 scale (0 no effect, 100 complete control); for Corn plant response rating (crop injury, 0 = no effect, 100 = complete kill) at 31 g/ha: 31 g ai/ha; for Corn plant response rating (crop injury, 0 = no effect, 100 = complete kill) at 125 g/ha: 125 g ai/ha
# Excerpt: as §1, §2
# [13] = tested on: blackgrass (Alopecurus myosuroides); test: Test A postemergence, blackgrass; assay type: in vivo; settings: Alopecurus myosuroides, post-emergence, 240 h, 0 to 100 scale (0 no effect, 100 complete control), read-out: Plant response rating, Blackgrass; for pest or weed control at 31 g/ha: 31 g ai/ha; for pest or weed control at 125 g/ha: 125 g ai/ha
# Excerpt: as §1, §2
# [14] = tested on: galium (catchweed bedstraw, Galium aparine); test: Test A postemergence, galium; assay type: in vivo; settings: Galium, post-emergence, 240 h, 0 to 100 scale (0 no effect, 100 complete control), read-out: Plant response rating, Galium; for pest or weed control at 31 g/ha: 31 g ai/ha; for pest or weed control at 125 g/ha: 125 g ai/ha
# Excerpt: as §1, §2
# [15] = tested on: rice (Oryza sativa); test: Test B flooded paddy test, rice; settings: Oryza sativa, read-out: Plant response rating, Rice (0 to 100 scale, 0 is no effect, 100 is complete control)
# [16] = tested on: ducksalad (Heteranthera limosa); test: Test B flooded paddy test, ducksalad; settings: Heteranthera limosa, read-out: Plant response rating, Ducksalad (0 to 100 scale, 0 is no effect, 100 is complete control)
# [17] = tested on: barnyardgrass (Echinochloa crus-galli); test: Test B flooded paddy test, barnyardgrass; settings: Echinochloa crus-galli, read-out: Plant response rating, Barnyardgrass (0 to 100 scale, 0 is no effect, 100 is complete control)
Compound,pest or weed control at 31 g/ha [1],pest or weed control at 125 g/ha [1],pest or weed control at 31 g/ha [2],pest or weed control at 125 g/ha [2],pest or weed control at 31 g/ha [3],pest or weed control at 125 g/ha [3],pest or weed control at 31 g/ha [4],pest or weed control at 125 g/ha [4],pest or weed control at 31 g/ha [5],pest or weed control at 125 g/ha [5],pest or weed control at 31 g/ha [6],pest or weed control at 125 g/ha [6],pest or weed control at 31 g/ha [7],pest or weed control at 125 g/ha [7],pest or weed control at 31 g/ha [8],pest or weed control at 125 g/ha [8],pest or weed control at 31 g/ha [9],pest or weed control at 125 g/ha [9],pest or weed control at 31 g/ha [10],pest or weed control at 125 g/ha [10],also measured
"CCCC1OC(=O)Cc2cccc(Oc3ncc(Cl)cn3)c21 (centres unmarked) [Compound 35, 8-[(5-Chloro-2-pyrimidinyl)oxy]-1,4-dihydro-1-propyl-3H-2-benzopyran-3-one]",0%,10%,0%,0%,0%,0%,0%,0%,0%,10%,0%,0%,20%,50%,0%,10%,0%,0%,30%,50%,"plant injury at 31 g/ha [11]: 0%; plant injury at 125 g/ha [11]: 0%; Corn plant response rating (crop injury, 0 = no effect, 100 = complete kill) at 31 g/ha [12]: 0%; Corn plant response rating (crop injury, 0 = no effect, 100 = complete kill) at 125 g/ha [12]: 0%; pest or weed control at 31 g/ha [13]: 10%; pest or weed control at 125 g/ha [13]: 10%; pest or weed control at 31 g/ha [14]: 10%; pest or weed control at 125 g/ha [14]: 30%; plant injury at 250 g/ha [15]: 0%; pest or weed control at 250 g/ha [16]: 0%; pest or weed control at 250 g/ha [17]: 0%"
"O=C1O[C@H](CCCC(F)(F)F)c2c(Oc3ncc(Cl)cn3)cccc21 [Compound 3, (3R)-4-[(5-Chloro-2-pyrimidinyl)oxy]-3-(4,4,4-trifluorobutyl)-1-(3H)-isobenzofuranone]",90%,100%,80%,100%,0%,0%,70%,100%,100%,100%,30%,90%,90%,100%,10%,60%,40%,100%,100%,100%,"plant injury at 31 g/ha [11]: 60%; plant injury at 125 g/ha [11]: 90%; Corn plant response rating (crop injury, 0 = no effect, 100 = complete kill) at 31 g/ha [12]: 50%; Corn plant response rating (crop injury, 0 = no effect, 100 = complete kill) at 125 g/ha [12]: 80%; pest or weed control at 31 g/ha [13]: 80%; pest or weed control at 125 g/ha [13]: 100%; pest or weed control at 31 g/ha [14]: 100%; pest or weed control at 125 g/ha [14]: 100%; plant injury at 250 g/ha [15]: 60%; pest or weed control at 250 g/ha [16]: 90%; pest or weed control at 250 g/ha [17]: 60%"
